Test results as given in patent publication US8940715B2, “Lipid-regulating agent and use thereof” (Hayashibara Co., Ltd., priority 2003, dated 2015).
Marks after values point to notes of the source that are not given here.

Columns and labels:
[1] = Experiment 1-1 feeding test on rat: weight and amount of feed taken; assay type: in vivo; conditions: 4 weeks
Description: (§1) Fifty 5-weeks aged male Wister-rats, having a weight of 110 to 120 grams, commercialized by Charles River Japan, Kanagawa, Japan, were fed on a non-fiber feed having a composition shown in Table 1 for one week for habituation. After the habituation, the rats were randomly divided into five groups and each group was fed on either of feeds shown in Table 1, i.e., a non-fiber feed, a feed in which cellulose was incorporated into the non-fiber feed to give a content of 5% (hereinafter, abbreviated as “fiber feed”), a feed in which powdery anhydrous crystalline CTS (purity of CTS: 99.5%), prepared by the method of Example A-3 described later, was incorporated into the non-fiber feed to give a content of 1, 2, or 5%, on a dry solid basis, and the feeding test was carried out for four weeks. A fiber-feed and three kinds of feeds comprising CTS were prepared to give the total content of cellulose or CTS and corn starch of 44.75% to the total weight of each feed. The rats were kept under the conditions of keeping the temperature at 25° C., lighting and shading for 12 hours each/day, and allowing the rats to eat the respective feed and water freely. After the completion of the feeding test, weight of individuals in each group was measured and an average weight and an average increase of weight of each group during the test period were calculated. Also, the total amount of feed fed to individual rat in each group during the 4-weeks test period and an average amount of CTS taken per day per kg-weight-rat were calculated and the results are in Table 2.

male Wister-rats [2] = test: Experiment 1-1 cecal tissue, cecal content and bile acids in cecum; assay type: in vivo; conditions: 4 weeks, rat
Description: Fifty 5-weeks aged male Wister-rats, having a weight of 110 to 120 grams, commercialized by Charles River Japan, Kanagawa, Japan, were fed on a non-fiber feed having a composition shown in Table 1 for one week for habituation. After the habituation, the rats were randomly divided into five groups and each group was fed on either of feeds shown in Table 1, i.e., a non-fiber feed, a feed in which cellulose was incorporated into the non-fiber feed to give a content of 5% (hereinafter, abbreviated as “fiber feed”), a feed in which powdery anhydrous crystalline CTS (purity of CTS: 99.5%), prepared by the method of Example A-3 described later, was incorporated into the non-fiber feed to give a content of 1, 2, or 5%, on a dry solid basis, and the feeding test was carried out for four weeks. A fiber-feed and three kinds of feeds comprising CTS were prepared to give the total content of cellulose or CTS and corn starch of 44.75% to the total weight of each feed. […] After the completion of the feeding test, weight of individuals in each group was measured and an average weight and an average increase of weight of each group during the test period were calculated. Also, the total amount of feed fed to individual rat in each group during the 4-weeks test period and an average amount of CTS taken per day per kg-weight-rat were calculated and the results are in Table 2.
Just after extirpating cecum as described above, its content was collected and weighted. The concentration of bile acids was measured by the steps of adding two milliliters of 80% (v/v) methanol aqueous solution to 0.2 gram of the cecal content, extracting bile acids at 70° C. for 30 min, centrifuging (3,500 rpm, 10 min) the mixture, drying the resulting supernatant in a dessicator with P2O5 for overnight, and measuring bile acids using a kit, “BILE ACID-TEST WAKO”, commercialized by Wako Pure Chemical Industries, Ltd., Osaka, Japan. The amount of bile acids was calculated by multiplying the concentration of bile acids and weight of the cecal content. […]

male Wister-rats [3] = test: Experiment 1-1 GOT activity in blood plasma (hepatic function disorder check); assay type: in vivo, rat; conditions: for GOT: blood plasma, 4 weeks, rat
Description: as §1
After the feeding test, each rat was fasted for one day and incised under anesthesia with ether. Then, blood was collected from the main vein of each rat using a syringe treated with 1% EDTA. Each collected blood was centrifuged at 3,500 rpm for 10 minutes to separate blood plasma and the contents of total cholesterol, triglyceride, and phospholipids in the resulting blood plasma were measured by using kits, “CHOLESTEROL C-TEST-WAKO”, “TRIGLYCERIDE-TEST-WAKO”, and “PHOSPHOLIPID C-TEST-WAKO”, respectively, commercialized by Wako Pure Chemical Industries, Ltd., Osaka, Japan. In order to check the hepatic function disorder, GOT activity in the blood plasma was measured using a kit, “GOT-TEST-WAKO”, commercialized by Wako Pure Chemical Industries, Ltd., Osaka, Japan. The content of LDL-cholesterol was calculated by subtracting the content of HDL-cholesterol from the total content of cholesterol. A significant difference test was done with respect to the group fed on fiber feed. […]

male Wister-rats [4] = test: Experiment 1-1 observation of diarrhea during feeding test; assay type: in vivo, rat
Description: as §1
The symptom of diarrhea was not observed in rats fed on a feed with CTS content of 2%.

male Wister-rats [5] = test: Experiment 1-1 wet-weight of adipose tissues around organs; assay type: in vivo; conditions: 4 weeks, rat
Description: as §1
(§2) After collecting the blood described above, each rat was killed by dislocating its cervical vertebrae and anatomized. Then, adipose tissues surrounding intestinal membrane, kidney, and testis, as well as liver and cecum, were collected. The wet-weight of those adipose tissues was measured and the results are in Table 4. In the case of liver, the wet-weight and the amount of total lipid, total cholesterol, triglyceride, and phospholipids were measured and the results are in Table 5. The amount of total lipid, total cholesterol, triglyceride, and phospholipids in the liver were measured by the steps of homogenizing four parts by weight of liver with four parts by weight of water using a homogenizer; extracting lipid by repeating three-times the following procedure of adding eight milliliters of a chloroform-methanol (2:1, by volume) solution, stirring the mixture, and centrifuging (3,000 rpm, 15 min) to collect chloroform phase; concentrating the resulting chloroform solution; and measuring those according to the same procedure used in the case of lipids in blood plasma.

male Wister-rats [6] = test: Experiment 1-1 liver weight and lipids in liver; assay type: in vivo; conditions: 4 weeks, rat
Description: as §1, §2

male Wister-rats [7] = test: Experiment 1-1 amount of lipids in blood plasma; assay type: in vivo; conditions: 4 weeks, rat
Description: as §1
After the feeding test, each rat was fasted for one day and incised under anesthesia with ether. Then, blood was collected from the main vein of each rat using a syringe treated with 1% EDTA. Each collected blood was centrifuged at 3,500 rpm for 10 minutes to separate blood plasma and the contents of total cholesterol, triglyceride, and phospholipids in the resulting blood plasma were measured by using kits, “CHOLESTEROL C-TEST-WAKO”, “TRIGLYCERIDE-TEST-WAKO”, and “PHOSPHOLIPID C-TEST-WAKO”, respectively, commercialized by Wako Pure Chemical Industries, Ltd., Osaka, Japan. In order to check the hepatic function disorder, GOT activity in the blood plasma was measured using a kit, “GOT-TEST-WAKO”, commercialized by Wako Pure Chemical Industries, Ltd., Osaka, Japan. The content of LDL-cholesterol was calculated by subtracting the content of HDL-cholesterol from the total content of cholesterol. A significant difference test was done with respect to the group fed on fiber feed. In the case of cholesterol, a significant difference test was done with respect to the group fed on non-fiber feed because it was believed that cellulose has no activity of reducing the amount of cholesterol by oral intake as described in “SHOKUMOTSU-SENI KISO-TO-OYO (Dietary fiber, its basis and application)” published by ASAKURA-SHOTEN in 1997.

[8] = 5% (w/w) CTS (Fiber: 5% cellulose) in feed

For `OCC1OC2OCC3O[C@H](O[C@H]4C(O)C(CO)OC(OCC5O[C@H](O[C@@H](C1O)C2O)C(O)C(O)[C@@H]5O)C4O)C(O)C(O)[C@@H]3O` (stereo partly drawn) [CTS, cyclo {→6)-α-D-glucopyranosyl-(1→3)-α-D-glucopyranosyl-(1→6)-α-D-glucopyranosyl-(1→3)-α-D-glucopyranosyl-(1→}], the Increase of weight ([1]; 1% (w/w) CTS in feed) was 164 g/individual/28 days, the Weight ([1]; 1% (w/w) CTS in feed) was 337 g/individual and the Increase of weight ([1]; 2% (w/w) CTS in feed) was 169 g/individual/28 days. The Weight ([1]; 2% (w/w) CTS in feed) was 342 g/individual, the Increase of weight [1, 8] was 149* g/individual/28 days and the Weight [1, 8] was 322* g/individual. The “Bile acids in cecum” value (male Wister-rats [2]; 1% (w/w) CTS in feed) was 1.15* μmol, the “Bile acids in cecum” value (male Wister-rats [2]; 2% (w/w) CTS in feed) was 1.36* μmol and the “Bile acids in cecum” value (male Wister-rats [2]; [8]) was 1.53* μmol. It also gave a GOT (male Wister-rats [3]; 1% (w/w) CTS in feed) of 10.3 IU, a GOT (male Wister-rats [3]; 2% (w/w) CTS in feed) of 10.2 IU and a GOT (male Wister-rats [3]; [8]) of 10.7 IU. The “GOT values (markers of functional disorder of liver) during the test period” value (male Wister-rats [3]; rats, regardless of the intake of CTS) was “not significantly changed”, the symptom of diarrhea (male Wister-rats [4]; rats fed on a feed with CTS content of 2%) was “not observed” and the “duration of symptom of diarrhea after initial intake of CTS” value (male Wister-rats [4]; rats fed on a feed with CTS content of 5%) was 2 to 3 days. For the same compound, the “symptom of diarrhea (individuals affected)” value (male Wister-rats [4]; rats fed on a feed with CTS content of 5%, then cured) was “two individuals in ten individuals”, the “Adipose surrounding intestinal membrane” value (male Wister-rats [5]; 1% (w/w) CTS in feed) was 3.7 g/individual and the Adipose surrounding kidney (male Wister-rats [5]; 1% (w/w) CTS in feed) was 3.7* g/individual. For the same compound, the Adipose surrounding testis (male Wister-rats [5]; 1% (w/w) CTS in feed) was 4.0* g/individual, the “Adipose surrounding intestinal membrane” value (male Wister-rats [5]; 2% (w/w) CTS in feed) was 3.1* g/individual and the Adipose surrounding kidney (male Wister-rats [5]; 2% (w/w) CTS in feed) was 2.9* g/individual. The Adipose surrounding testis (male Wister-rats [5]; 2% (w/w) CTS in feed) was 3.9* g/individual, the “Adipose surrounding intestinal membrane” value (male Wister-rats [5]; [8]) was 1.9* g/individual and the Adipose surrounding kidney (male Wister-rats [5]; [8]) was 2.1* g/individual. For the same compound, the Adipose surrounding testis (male Wister-rats [5]; [8]) was 3.1* g/individual, the Phospholipids in liver (male Wister-rats [6]; 1% (w/w) CTS in feed) was 140 mg/individual and the “Total cholesterols in liver” value (male Wister-rats [6]; 1% (w/w) CTS in feed) was 35.9 mg/individual. The “Total lipids in liver” value (male Wister-rats [6]; 1% (w/w) CTS in feed) was 510 mg/individual, the Triglycerides in liver (male Wister-rats [6]; 1% (w/w) CTS in feed) was 186 mg/individual and the Phospholipids in liver (male Wister-rats [6]; 2% (w/w) CTS in feed) was 149 mg/individual. For the same compound, the “Total cholesterols in liver” value (male Wister-rats [6]; 2% (w/w) CTS in feed) was 37.2 mg/individual, the “Total lipids in liver” value (male Wister-rats [6]; 2% (w/w) CTS in feed) was 598 mg/individual and the Triglycerides in liver (male Wister-rats [6]; 2% (w/w) CTS in feed) was 254 mg/individual. For the same compound, the Phospholipids in liver (male Wister-rats [6]; [8]) was 142 mg/individual, the “Total cholesterols in liver” value (male Wister-rats [6]; [8]) was 35.4 mg/individual and the “Total lipids in liver” value (male Wister-rats [6]; [8]) was 575 mg/individual. The Triglycerides in liver (male Wister-rats [6]; [8]) was 239 mg/individual, the Phospholipids (male Wister-rats [7]; 1% (w/w) CTS in feed) was 116 mg/dL and the Total cholesterols (male Wister-rats [7]; 1% (w/w) CTS in feed) was 67.1 mg/dL. The Triglycerides (male Wister-rats [7]; 1% (w/w) CTS in feed) was 44.2 mg/dL, the Phospholipids (male Wister-rats [7]; 2% (w/w) CTS in feed) was 115 mg/dL and the Total cholesterols (male Wister-rats [7]; 2% (w/w) CTS in feed) was 66.1 mg/dL. The Triglycerides (male Wister-rats [7]; 2% (w/w) CTS in feed) was 28.7* mg/dl, the Phospholipids (male Wister-rats [7]; [8]) was 107 mg/dL and the Total cholesterols (male Wister-rats [7]; [8]) was 59.4* mg/dl. The Triglycerides (male Wister-rats [7]; [8]) was 21.7* mg/dl.
